# Experiments:
# [1] = tested on: human adenocarcinoma cell line CaCo-2; assay: Cell based screen for inhibitors of Raf kinase, quantitative assay; details: Caco-2, 96 h, four days incubation
# Protocol: (§1) • Cell Lines: Human adenocarcinoma cell line LoVo which is known to be growth inhibited by low nM concentrations of a reference standard inhibitor of Ras and human adenocarcinoma cell line CaCo-2, which is known to be growth resistant to the same reference compound. • Cell Media : RPMI 1640 with 10% Fetal Bovine Serum supplemented with L-glutamine and Pennicilin/Streptomycin. • Compounds: Supplied usually as a 10 mM stock in 100% DMSO. • Normal Saline: 150 mM NaCl • Trichloroacetic Acid (TCA): 50% (w/v) in water • Sulforhodamine B (SRB): 0.4% (w/v) in 1% Acetic Acid • Tris Base: 10 mM in water
# (§2) Cells are plated at 2000 cells per well for cell line LoVo and 1500 cells for cell line CaCo-2 in 96 well plates. Cells are plated in media (200 µl) and allowed to adhere overnight at 37°C. At 24 hours post plating, compounds are added directly at a volume of 0.5 µl. For the qualitative screen (compounds screened at 25 µM) compound is added directly to cells. For the quantitative screen, compound is first diluted in DMSO to generate concentrations of compound or reference standard of: 1, 5, 10 and 25 µM. It is advisable to make the dilutions in an identical 96 well plate so that compounds can be added using a multichannel micropipettor set at 0.5 µl. The cells are then incubated for four days after which the media is removed using a 12 well manifold by first tipping the plate forward at a 45 degree angle and then inserting the manifold in an upright orientation to prevent the tips of the manifold from disturbing cells at the bottom of the plate. 200 µl of normal saline is then added to each well using an 8 well multichannel pipettor, followed by the careful addition of 50 µl of 50% TCA. The plates are then incubated for 2 hours at 4°C, after which the supernatant is removed using the same technique as above and the plated washed twice with 200 µl water. The plates are then air dried and 50 µl of SRB stock solution is carefully added so that the entire bottom of each well is covered. This again can be used using an 8 well multichannel pipettor. The SRB is incubated with fixed cells for 15 minutes at room temperature after which the SRB is removed with the manifold as described above and the plates washed twice with 350 µl of 1% acetic acid per well each time. The plates are then air dried after which the bound SRB is released from protein by the addition of 200 µl of Tris base. Resolubilizing the SRB is aided by placing the plates on a rotator for 15-30 minutes. The absorbance of each well is determined at 550 or 562 nm using a microtiter plate reader.
# (§3) Each compound or dilution thereof is performed in triplicate. Outliers are identified by visual inspection of the data. Each plate should have a "0" control (vehicle only).
# (§4) Quantitative Assay: A standard curve is constructed by plotting the concentration of compound against the average absorbance calculated at that concentration. […] Multiple entries for a given compound indicate that it is tested multiple times.
# [2] = tested on: Human adenocarcinoma cell line LoVo; assay: as above; details: 96 h, four days incubation
# Protocol: as §1, §2, §3, §4
# [3] = target: T1, EGF-R Kinase (recombinant enzyme) (Homo sapiens, UniProt P00533); assay: Inhibition of Epidermal Growth Factor Receptor Kinase (EGF-R) using recombinant enzyme; format: biochemical; details: RR-SRC peptide substrate, (a) = average of two tests
# T1 construct: EGFR cDNA encoding amino acids 645 - 1186 preceded by Met-Ala-(His)6; made in house; host or cells: Sf9 insect cells, recombinant baculovirus vHcEGFR52
# Protocol: Representative test compounds are evaluated in a standard pharmacological test procedure to measure their ability to inhibit the phosphorylation of the tyrosine residue of a peptide substrate catalyzed by the enzyme epidermal growth factor receptor kinase. […] The enzyme used in this assay is the His-tagged cytoplasmic domain of EGFR. […] Sf9 cells in 100 mm plates are infected at a multiplicity of infection of 10 pfu/cell and cells are harvested 48 h post infection. A cytoplasmic extract is prepared using 1% Triton X-100 and applied to Ni-NTA column. After washing the column with 20 mM imidazole, HcEGFR is eluted with 250 mM imidazole (in 50 mM Na2HPO4, pH 8.0, 300 mM NaCl). Fractions collected are dialyzed against 10 mM HEPES, pH 7.0, 50 mM NaCl, 10% glycerol, 1ug/mL antipain and leupeptin and 0.1 mM Pefabloc SC. The protein is frozen in dry ice/methanol and stored -70°C.
# Test compounds are made into 10 mg/mL stock solutions in 100% dimethylsulfoxide (DMSO). Prior to experiment, stock solutions are diluted to 500 uM with 100% DMSO and then serially diluted to the desired concentration with HEPES buffer (30 mM HEPES pH 7.4).
# For the enzyme reaction, 10 uL of each inhibitor (at various concentrations) are added to each well of a 96-well plate. To this is added 3 uL of enzyme (1:10 dilution in 10mM HEPES, pH 7.4 for final conc. of 1:120). This is allowed to sit for 10 min on ice and is followed by the addition of 5 ul peptide (80 uM final conc.), 10ul of 4X Buffer containing 50 mM HEPES (pH 7.4), 200 mM Na3VO4, 40mM MnCl2, 80 uM ATP, 0.25 uL ^33P-ATP (>2500 Ci/mmol; Amersham) and 12 uL H2O. The reaction is allowed to run for 90 min at room temperature and is followed by spotting the entire volume onto precut P81 filter papers. The filter discs are washed 2X with 0.5% phosphoric acid and radioactivity is measured using a liquid scintillation counter.
# The % inhibition of the test compound is determined for at least three different concentrations and the IC50 value is evaluated from the dose response curve. […] CPM(control) is in units of counts per minute and is a number expressing the amount of radiolabled ATP (γ-^33P) incorporated into the RR-SRC peptide substrate by the enzyme after 90 minutes at room temperature in the absence of test compound as measured by liquid scintillation counting. The CPM values are corrected for the background counts produced by ATP in the absence of the enzymatic reaction.
# T1 sequence (P00533 669-1210): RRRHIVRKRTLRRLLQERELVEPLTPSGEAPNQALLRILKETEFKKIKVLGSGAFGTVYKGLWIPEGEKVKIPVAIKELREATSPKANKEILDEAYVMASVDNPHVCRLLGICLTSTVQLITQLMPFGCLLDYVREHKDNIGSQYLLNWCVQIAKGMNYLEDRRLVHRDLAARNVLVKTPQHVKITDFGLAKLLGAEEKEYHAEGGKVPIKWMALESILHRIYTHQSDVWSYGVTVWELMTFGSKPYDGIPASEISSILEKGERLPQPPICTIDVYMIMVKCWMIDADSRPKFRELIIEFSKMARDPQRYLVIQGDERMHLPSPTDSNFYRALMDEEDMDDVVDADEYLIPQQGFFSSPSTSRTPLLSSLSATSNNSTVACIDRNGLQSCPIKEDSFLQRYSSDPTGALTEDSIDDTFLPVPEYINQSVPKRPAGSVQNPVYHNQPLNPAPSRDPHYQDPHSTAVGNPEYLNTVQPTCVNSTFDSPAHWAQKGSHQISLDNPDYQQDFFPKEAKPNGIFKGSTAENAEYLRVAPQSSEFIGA
smiles,measurement,setting,value
"COc1cc2cc3c(Nc4ccc(OCc5ccccc5)c(Cl)c4)c(C#N)cnc3cc2cc1OCCN1CCOCC1 [Example 218, 4-(4-Benzyloxy-3-chlorophenylamino)-7-methoxy-8-(2-morpholin-4-yl-ethoxy)benzo[g]quinoline-3-carbonitrile]",IC50,[1],6000 nM
same,IC50,[2],430 nM
same,IC50,[3],5.3 nM
